According to PubChem BioAssay (NCI):
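Compound exposure: 48 hours, 5 concentrations, 96-well plates. Definition used: TGI = concentration required for complete inhibition of growth.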

How the values were obtained:
Experiment in all cases: NCI anticancer screen, dose series, 48 h
SN12C renal = system: SN12C renal
HS 578T breast = system: HS 578T breast
SF-295 CNS = system: SF-295 CNS
U251 CNS = system: U251 CNS
TK-10 renal = system: TK-10 renal
OVCAR-8 ovarian = system: OVCAR-8 ovarian
SR leukemia = system: SR leukemia
NCI-H23 lung = system: NCI-H23 lung
HCT-15 colon = system: HCT-15 colon
A549 NSCLC = system: A549 NSCLC
M14 melanoma = system: M14 melanoma
HOP-62 NSCLC = system: HOP-62 NSCLC
HT29 colon = system: HT29 colon
SNB-75 CNS = system: SNB-75 CNS
MALME-3M melanoma = system: MALME-3M melanoma
RXF 393 renal = system: RXF 393 renal
HL-60(TB) leukemia = system: HL-60(TB) leukemia
PC-3 prostate = system: PC-3 prostate
SK-MEL-28 melanoma = system: SK-MEL-28 melanoma
LOX IMVI melanoma = system: LOX IMVI melanoma
MOLT-4 leukemia = system: MOLT-4 leukemia
BT-549 breast = system: BT-549 breast
NCI/ADR-RES ovarian = system: NCI/ADR-RES ovarian
SF-268 CNS = system: SF-268 CNS
MDA-N = system: MDA-N
SNB-19 CNS = system: SNB-19 CNS
OVCAR-3 ovarian = system: OVCAR-3 ovarian
HOP-92 NSCLC = system: HOP-92 NSCLC
OVCAR-5 ovarian = system: OVCAR-5 ovarian
EKVX NSCLC = system: EKVX NSCLC
MDA-MB-435 = system: MDA-MB-435
HCC-2998 colon = system: HCC-2998 colon
OVCAR-4 ovarian = system: OVCAR-4 ovarian
RPMI-8226 leukemia = system: RPMI-8226 leukemia
SW-620 colon = system: SW-620 colon
IGROV1 ovarian = system: IGROV1 ovarian
K-562 leukemia = system: K-562 leukemia
SK-MEL-5 melanoma = system: SK-MEL-5 melanoma
786-0 renal = system: 786-0 renal
ACHN renal = system: ACHN renal
DU-145 prostate = system: DU-145 prostate
NCI-H460 lung = system: NCI-H460 lung
CCRF-CEM leukemia = system: CCRF-CEM leukemia
A498 renal = system: A498 renal
UO-31 renal = system: UO-31 renal
UACC-257 melanoma = system: UACC-257 melanoma
MDA-MB-231 breast = system: MDA-MB-231 breast
COLO 205 colon = system: COLO 205 colon
SK-OV-3 ovarian = system: SK-OV-3 ovarian
SK-MEL-2 melanoma = system: SK-MEL-2 melanoma
UACC-62 melanoma = system: UACC-62 melanoma
KM12 colon = system: KM12 colon
NCI-H522 lung = system: NCI-H522 lung
T-47D breast = system: T-47D breast
HCT-116 colon = system: HCT-116 colon
MCF7 breast = system: MCF7 breast
CAKI-1 renal = system: CAKI-1 renal
NCI-H226 lung = system: NCI-H226 lung
SF-539 CNS = system: SF-539 CNS

SMILES: CN1CC[C@@]2(c3cccc(O)c3)CC(=O)/C(=C/c3ccc(Cl)c(Cl)c3)[C@H]1C2
- TGI (SN12C renal): 3.89 µM
- TGI (HS 578T breast): 7.19 µM
- TGI (SF-295 CNS): 3.86 µM
- TGI (U251 CNS): 2.67 µM
- TGI (TK-10 renal): 27 µM
- TGI (OVCAR-8 ovarian): 10.1 µM
- TGI (SR leukemia): 5.92 µM
- TGI (NCI-H23 lung): 15.9 µM
- TGI (HCT-15 colon): 3.77 µM
- TGI (A549 NSCLC): 11.5 µM
- TGI (M14 melanoma): 5.02 µM
- TGI (HOP-62 NSCLC): 6.2 µM
- TGI (HT29 colon): 2.72 µM
- TGI (SNB-75 CNS): 2.63 µM
- TGI (MALME-3M melanoma): 13.1 µM
- TGI (RXF 393 renal): 5.62 µM
- TGI (HL-60(TB) leukemia): 3.82 µM
- TGI (PC-3 prostate): 3.07 µM
- TGI (SK-MEL-28 melanoma): 4.65 µM
- TGI (LOX IMVI melanoma): 2.81 µM
- TGI (MOLT-4 leukemia): 8.47 µM
- TGI (BT-549 breast): 4.33 µM
- TGI (NCI/ADR-RES ovarian): 7.09 µM
- TGI (SF-268 CNS): 7.01 µM
- TGI (MDA-N): 3.77 µM
- TGI (SNB-19 CNS): 12.5 µM
- TGI (OVCAR-3 ovarian): 4.07 µM
- TGI (HOP-92 NSCLC): 18.1 µM
- TGI (OVCAR-5 ovarian): 14.4 µM
- TGI (EKVX NSCLC): 21 µM
- TGI (MDA-MB-435): 2.8 µM
- TGI (HCC-2998 colon): 3.37 µM
- TGI (OVCAR-4 ovarian): 17.2 µM
- TGI (RPMI-8226 leukemia): 4.37 µM
- TGI (SW-620 colon): 3.06 µM
- TGI (IGROV1 ovarian): 5.65 µM
- TGI (K-562 leukemia): 3.66 µM
- TGI (SK-MEL-5 melanoma): 5.53 µM
- TGI (786-0 renal): 3.07 µM
- TGI (ACHN renal): 3.38 µM
- TGI (DU-145 prostate): 16.4 µM
- TGI (NCI-H460 lung): 4.72 µM
- TGI (CCRF-CEM leukemia): > 100 µM
- TGI (A498 renal): 26.5 µM
- TGI (UO-31 renal): 4.33 µM
- TGI (UACC-257 melanoma): 12.6 µM

SMILES: Cc1ccc(C(=O)c2[nH]c(NCc3ccccc3)c(C(=S)Nc3ccccc3)c2N)cc1
- TGI (MDA-MB-231 breast): 19.6 µM
- TGI (SN12C renal): 28.8 µM
- TGI (SF-295 CNS): 17.2 µM
- TGI (U251 CNS): 15.6 µM
- TGI (TK-10 renal): 23.3 µM
- TGI (OVCAR-8 ovarian): 26.1 µM
- TGI (NCI-H23 lung): 27.1 µM
- TGI (COLO 205 colon): 18 µM
- TGI (HCT-15 colon): 4.33 µM
- TGI (A549 NSCLC): 22.1 µM
- TGI (M14 melanoma): 3.97 µM
- TGI (HOP-62 NSCLC): 29.2 µM
- TGI (HT29 colon): 10.5 µM
- TGI (SK-OV-3 ovarian): 8.04 µM
- TGI (SNB-75 CNS): 16.6 µM
- TGI (RXF 393 renal): 20.7 µM
- TGI (HL-60(TB) leukemia): 33.5 µM
- TGI (PC-3 prostate): 26.1 µM
- TGI (SK-MEL-28 melanoma): 9.97 µM
- TGI (SK-MEL-2 melanoma): 22.8 µM
- TGI (LOX IMVI melanoma): 3.97 µM
- TGI (MOLT-4 leukemia): 6.38 µM
- TGI (BT-549 breast): 20.3 µM
- TGI (NCI/ADR-RES ovarian): 8.51 µM
- TGI (SF-268 CNS): 28.8 µM
- TGI (MDA-N): 12.3 µM
- TGI (SNB-19 CNS): 29.1 µM
- TGI (UACC-62 melanoma): 25.2 µM
- TGI (KM12 colon): 6.34 µM
- TGI (NCI-H522 lung): 4.96 µM
- TGI (OVCAR-3 ovarian): 25.2 µM
- TGI (HOP-92 NSCLC): 18.9 µM
- TGI (T-47D breast): 33.5 µM
- TGI (HCT-116 colon): 15.2 µM
- TGI (MCF7 breast): 13.2 µM
- TGI (CAKI-1 renal): 27.5 µM
- TGI (NCI-H226 lung): 32.3 µM
- TGI (OVCAR-5 ovarian): 27 µM
- TGI (SF-539 CNS): 5.63 µM
- TGI (EKVX NSCLC): 26.5 µM
- TGI (MDA-MB-435): 10.2 µM
- TGI (HCC-2998 colon): 2.65 µM
- TGI (OVCAR-4 ovarian): 12.5 µM
- TGI (RPMI-8226 leukemia): 5 µM
- TGI (SW-620 colon): 5.19 µM
- TGI (IGROV1 ovarian): 19.9 µM
- TGI (K-562 leukemia): 5.11 µM
- TGI (786-0 renal): 18.7 µM
- TGI (ACHN renal): 23.5 µM
- TGI (DU-145 prostate): 27 µM
- TGI (NCI-H460 lung): 18.8 µM
- TGI (CCRF-CEM leukemia): 28.9 µM
- TGI (A498 renal): 31.6 µM
- TGI (UO-31 renal): 18.2 µM
- TGI (UACC-257 melanoma): 18.4 µM
